Data: patent US9884801B2, “Compounds from antrodia camphorata, method for preparing the same and use thereof” (ONENESS BIOTECH CO.,LTD., priority 2014, dated 2018)
Converted amounts (≈) assume the structure as drawn. Like-named read-outs stand apart in the source and are kept apart here.

Columns and labels:
Assay type in all cases: cell-based
PC3 (Prostate) = assay: SRB anti-proliferation assay, PC3; conditions: PC3, 48 hours
Description: (§1) Various cell lines (5×10^3 cells/well) were sub-cultured onto 96-well plates and starved with serum-free medium for 48 h. Then cells were incubated in medium with 10% FBS in the absence or presence of various concentrations of AC006, AC007, AC009, and AC012 (0.1, 0.3, 1, 3, 10, and 30 μg/ml) for 48 hours. After treatment, the medium was discarded firstly. […]. In order to fix the adherent cells, 100 μl of trichloroacetic acid (10% (w/v)) were adding to each well and incubating at 4° C. for 1 hour. Then the plates were then washed with deionized water and dried in the air. Each well were added with 50 μl of Sulforhodamine B (SRB) solution (0.4% w/v in 1% acetic acid) and incubated for 5 min at room temperature. To remove unbound SRB in the plates, the plates were washed with 1% acetic acid and then air dried. The residual bound SRB was solubilized with 100 μl of 10 mM Tris base buffer (pH 10.5), and then read using a micro titer plate reader at 495 nm.

LN-229 (Brain, Glioma) = assay: SRB anti-proliferation assay, LN-229; conditions: Homo sapiens; for IC50: LN-229, 48 hours
Description: as §1

U87 (Brain, Glioma) = assay: SRB anti-proliferation assay, U87; conditions: for IC50: U87, 48 hours
Description: as §1

Huh-7 (Liver) = assay: SRB anti-proliferation assay, Huh-7; conditions: Homo sapiens; for IC50: Huh-7, 48 hours; for inhibition at 0.3 µg/mL: Huh-7, in 0.3 μg/ml
Description: as §1

Sk-Hep-1 (Liver) = assay: SRB anti-proliferation assay, Sk-Hep-1; conditions: Homo sapiens, SK-HEP1; Sk-Hep-1, 48 hours
Description: as §1

U251 (Brain, Glioma) = assay: SRB anti-proliferation assay, U251; conditions: Homo sapiens, U-251; for IC50: U251, 48 hours
Description: as §1

B16F10 (Melanoma) = assay: SRB anti-proliferation assay, B16F10; conditions: Mus musculus, B16-F10; B16F10, 48 hours
Description: as §1

A549 (Lung) = assay: SRB anti-proliferation assay, A549; conditions: Homo sapiens; for IC50: A549, 48 hours; for inhibition at 10 µg/mL: A549, in 10 μg/ml
Description: as §1

DLD-1 (Colorectal) = assay: SRB anti-proliferation assay, DLD-1; conditions: for inhibition at 10 µg/mL: DLD-1, in 10 μg/ml
Description: as §1

HCT-116 (Colon rectal) = assay: SRB anti-proliferation assay, HCT-116; conditions: Homo sapiens; for IC50: HCT-116, 48 hours; for inhibition at 0.3 µg/mL: HCT-116, in 0.3 μg/ml
Description: as §1

RKO (Colorectal) = assay: SRB anti-proliferation assay, RKO; conditions: for inhibition at 10 µg/mL: in 10 μg/ml
Description: as §1

SW-480 (Colon rectal) = assay: SRB anti-proliferation assay, SW-480; conditions: for IC50: SW-480, 48 hours; for inhibition at 10 µg/mL: SW480, SW-480, in 10 μg/ml
Description: as §1

4T-1 (Breast) = assay: SRB anti-proliferation assay, 4T-1; conditions: 4T-1, 48 hours
Description: as §1

HT-29 (Colon) = assay: SRB anti-proliferation assay, HT-29; conditions: Homo sapiens; HT-29, 48 hours
Description: as §1

COLO205 (Colon) = assay: SRB anti-proliferation assay, COLO205; conditions: Homo sapiens, COLO 205; COLO205, 48 hours
Description: as §1

NST (Colon) = assay: SRB anti-proliferation assay, NST
Description: as §1

EPCs in presence of VEGF = assay: Matrigel capillary tube formation assay; conditions: 1 μg/ml, EPC, VEGF 20 ng/ml, 16 hr; read-out: inhibit tube formation
Description: Matrigel was added to 15-well-plates (ibidi) in a total volume of 10 μl in each well. Plates were stood at 37° C. for 30 min to form a gel layer. After gel formation, EPCs (5×10^3 cells) treated with or without AC012 (0.1, 0.3, 1 μg/ml) in presence of VEGF (20 ng/ml) were applied to each well, and plates were incubated for at 37° C. 16 hr with 5% CO2. After incubation, the inverted contrast phase microscope (Nikon, Japan) was used for subject observation.

[1] = system: Endothelial progenitor cell (EPCs); assay: SRB assay, EPC cell proliferation; conditions: 48 h, read-out: inhibitory concentrations of 50% EPC cell proliferation (IC50)
Description: as §1, with “Endothelial progenitor” for “Various”, “(EPCs, 5×10^3” for “lines (5×10^3”, “of” for “of AC006, AC007, AC009, and”, “10” for “10,”, “h.” for “hours. After treatment, the medium was discarded firstly.”

[2] = Homo sapiens, DLD-1, 48 h, read-out: IC50
[3] = Homo sapiens, SW480, 48 h, read-out: IC50

Row | IC50 (PC3 (Prostate)) [µg/mL] | IC50 (LN-229 (Brain, Glioma)) [µg/mL] | IC50 (Huh-7 (Liver)) [µg/mL] | IC50 (B16F10 (Melanoma)) [µg/mL] | IC50 (A549 (Lung)) [µg/mL] | IC50 (DLD-1 (Colorectal); [2]) [µg/mL] | IC50 (HCT-116 (Colon rectal)) [µg/mL] | IC50 (SW-480 (Colon rectal); [3]) [µg/mL] | Structure (SMILES) | inhibition at 10 µg/mL (A549 (Lung)) [%] | inhibition at 10 µg/mL (DLD-1 (Colorectal); Homo sapiens) [%] | inhibition at 0.3 µg/mL (HCT-116 (Colon rectal)) [%] | inhibition at 0.3 µg/mL (Huh-7 (Liver)) [%] | IC50 (RKO (Colorectal); 48 h, read-out: IC50) [µg/mL] | inhibition at 10 µg/mL (RKO (Colorectal)) [%] | inhibition at 10 µg/mL (SW-480 (Colon rectal); Homo sapiens) [%] | other results
1 | 19.7 (≈ 43.9 µM) | > 30 | 0.72 (≈ 1.6 µM) | 28.7 (≈ 64 µM) | > 10 | – | – | – | COC1=C(OC)[C@H](OC(C)=O)[C@H](C/C=C(\C)CC/C=C(\C)C[C@H](O)C=C(C)C)[C@@H](C)C1=O [AC006] | 12.2 | – | – | – | – | – | – | inhibition at 30 µg/mL (LN-229 (Brain, Glioma); LN-229, in 30 μg/ml): 22.6%; IC50 (U87 (Brain, Glioma)): > 30 µg/mL; inhibition at 30 µg/mL (U87 (Brain, Glioma); U87, in 30 μg/ml): 11.3%; IC50 (Sk-Hep-1 (Liver)): 26.8 µg/mL (≈ 59.7 µM); IC50 (U251 (Brain, Glioma)): > 30 µg/mL; inhibition at 30 µg/mL (U251 (Brain, Glioma); U251, in 30 μg/ml): 22.6%
2 | – | – | < 0.3 | – | 1.69 (≈ 4.16 µM) | > 10 | < 0.3 | > 10 | COC1=C(OC)[C@H](O)[C@H](C/C=C(\C)CC/C=C(\C)C/C=C/C(C)(C)O)[C@@H](C)C1=O [AC007-H1] | – | 16.1 | 59.5 | 85.2 | > 10 | 33 | 18.2 | –
3 | 22.1 (≈ 49.2 µM) | > 25 | 0.88 (≈ 1.96 µM) | 23.4 (≈ 52.3 µM) | 3.57 (≈ 7.96 µM) | 19.7 (≈ 44 µM) | 0.93 (≈ 2.07 µM) | > 10 | COC1=C(OC)[C@H](OC(C)=O)[C@H](C/C=C(\C)CC/C=C(\C)C/C=C/C(C)(C)O)[C@@H](C)C1=O [AC007] | – | 25.6 | – | – | 17.6 (≈ 39.2 µM) | 29.5 | 21.5 | IC50 (DLD-1 (Colorectal); DLD-1, 48 hours): > 10 µg/mL; inhibition at 25 µg/mL (LN-229 (Brain, Glioma); LN-229, in 25 μg/ml): 19.1%; IC50 (4T-1 (Breast)): 24.8 µg/mL (≈ 55.3 µM); IC50 (RKO (Colorectal); 48 hours): > 10 µg/mL
4 | – | – | < 0.3 | – | > 10 | > 10 | < 0.3 | > 10 | COC1=C(OC)[C@H](O)[C@H](C/C=C(\C)CC/C=C(\C)CC/C=C(\C)CO)[C@@H](C)C1=O [AC009-H1] | 40.8 | 11 | 54.4 | 90.6 | > 10 | 8.79 | 4.01 | –
5 | 15 (≈ 33.4 µM) | 19.5 (≈ 43.5 µM) | < 0.3 | 22.4 (≈ 50 µM) | 8.08 (≈ 18 µM) | 14.6 (≈ 32.6 µM) | 2.56 (≈ 5.71 µM) | 18.6 (≈ 41.4 µM) | COC1=C(OC)[C@H](OC(C)=O)[C@H](C/C=C(\C)CC/C=C(\C)CC/C=C(\C)CO)[C@@H](C)C1=O [AC009] | – | 8.75 | – | 88.2 | 15.9 (≈ 35.5 µM) | 33.2 | 7.98 | IC50 (DLD-1 (Colorectal); DLD-1, 48 hours): > 10 µg/mL; IC50 (HT-29 (Colon)): 33.2 µg/mL (≈ 74.1 µM); IC50 (RKO (Colorectal); 48 hours): > 10 µg/mL; IC50 (COLO205 (Colon)): 2.45 µg/mL (≈ 5.46 µM); IC50 (SW-480 (Colon rectal)): > 10 µg/mL; IC50 (NST (Colon); 48 hours): > 25 µg/mL; inhibition at 25 µg/mL (NST (Colon); in 25 μg/ml): 44.4%
6 | – | – | – | – | – | > 10 | 2.43 (≈ 5.59 µM) | > 10 | COC1=C(OC)[C@H](OC(C)=O)[C@H](C/C=C(\C)CC/C=C(\C)C/C=C/C(C)(C)O)CC1=O [AC011] | – | 7.57 | – | – | > 10 | 24.1 | 31.6 | –
7 | – | – | < 0.3 | – | 6.4 (≈ 15.7 µM) | > 10 | < 0.3 | > 10 | COC1=C(OC)[C@H](O)[C@H](C/C=C(\C)CC/C=C(\C)CCCC(C)CO)[C@@H](C)C1=O (some centres unmarked) [AC012-H1] | – | 11.8 | 52.7 | 91.2 | > 10 | 17.5 | 14.8 | –
8 | – | – | – | – | – | > 10 | > 10 | > 10 | COC1C(=O)C(C)[C@@H](C/C=C(\C)CC/C=C(\C)CCCC(C)CO)[C@@H](O)C1(OC)OC (some centres unmarked) [AC012-H2] | – | 8.31 | – | – | > 10 | 31.6 | 5.66 | inhibition at 10 µg/mL (HCT-116 (Colon rectal); HCT-116, in 10 μg/ml): 40.3%
9 | 11.4 (≈ 25.2 µM) | 19.4 (≈ 43.2 µM) | < 0.3 | 9.16 (≈ 20.3 µM) | > 10 | > 10 | 2.29 (≈ 5.08 µM) | > 10 | COC1=C(OC)[C@H](OC(C)=O)[C@H](C/C=C(\C)CC/C=C(\C)CCCC(C)CO)[C@@H](C)C1=O (some centres unmarked) [AC012] | 49.5 | 20.2 | – | 78.9 | > 10 | 34.7 | 9.05 | IC50 (U87 (Brain, Glioma)): 18.6 µg/mL (≈ 41.3 µM); inhibition at 1 µg/mL (EPCs in presence of VEGF): 31.9%; IC50 (Sk-Hep-1 (Liver)): 8.27 µg/mL (≈ 18.4 µM); IC50 (U251 (Brain, Glioma)): 22.7 µg/mL (≈ 50.4 µM); IC50 [1]: 29 µg/mL (≈ 64.4 µM)
